Molecules are shown by their SMILES. “And” between values parts separate entries of the source, which are not always exact repeats. Equal values may be shown once. The source made the active and inactive calls. No rule for the calls is given here.

In general, IC50 refers to the concentration that gives 50% inhibition.

For the test, the target named is Ubiquitin-conjugating enzyme E2 N (Homo sapiens) (UniProt P61088). The test can be described thus: Ubc13/Uev1a ubiquitination inhibitors, SAR follow-up, selectivity assay, biochemical, TR-FRET (AID 2658). As to conditions: Ubc13/Uev1a polyubiquitination, in vitro. On the technique in general: TR-FRET usually uses a lanthanide donor and a delayed reading to cut background.
Ubiquitin-conjugating enzyme E2 N (Homo sapiens), sequence (P61088 whole entry, looked up): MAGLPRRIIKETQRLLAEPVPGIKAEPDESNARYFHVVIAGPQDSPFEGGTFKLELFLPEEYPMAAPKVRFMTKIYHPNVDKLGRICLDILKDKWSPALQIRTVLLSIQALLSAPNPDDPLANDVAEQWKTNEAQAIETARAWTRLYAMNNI
For the compound `CCNC(=O)COC(=O)c1cc(-c2ccco2)nc2ccccc12`, the IC50 was > 100 µM (inactive).

`Fc1ccc(C2Nc3ccccc3C3C=CCC32)cc1` (configuration not stated): the IC50 is > 100 µM (inactive).

On to `Cc1ccsc1C=Nc1ccc(O)cc1`, for which the IC50 was > 100 µM (inactive).

For `Cc1[nH][nH]c(=O)c1C(c1ccc(-c2ccc(F)cc2)o1)c1c(C)[nH][nH]c1=O`, the IC50 was > 100 µM (inactive).

Take `O=C(COC(=O)c1cc(-c2ccco2)nc2ccccc12)NCc1ccc(F)cc1`: the IC50 is 72.7 µM.

With `COc1ccc2c(c1)C(NC(C)=O)C(=O)N2CCN1CCOCC1` (configuration not stated), the IC50 was 86.1 µM.

`Nc1ccc2c(c1)C1C=CCC1C(c1ccccc1)N2` (configuration not stated): the IC50 was > 100 µM (inactive).

Consider `Cc1[nH][nH]c(=O)c1C(c1ccc(-c2ccc(C(=O)O)cc2)o1)c1c(C)[nH][nH]c1=O`, for which the IC50 was > 100 µM (inactive).

As for `C/C(=N\OCc1nc2ccccc2c(=O)n1/N=C/c1cc(Br)ccc1O)c1ccccc1`, the IC50 was > 100 µM (inactive).

For `CCN(CC)CCNC(=O)c1cc(-c2ccco2)nc2ccccc12`, the IC50 was > 100 µM (inactive).

As for `CC(NC(=O)COC(=O)c1cc(-c2ccco2)nc2ccccc12)c1ccc(F)cc1` (configuration not stated), the half-maximal inhibitory concentration (IC50) is 72.5 µM.

Regarding `COc1ccccc1CNC(=O)COC(=O)c1cc(-c2ccco2)nc2ccccc12`, the concentration for half-maximal inhibition (IC50) is 60.2 µM.

Consider `C/C(=N\OCc1nc2ccccc2c(=O)n1/N=C/c1ccc(Cl)cc1)c1ccccc1`, for which the IC50 is > 100 µM (inactive).

For `Cc1ccccc1NC(=O)Cn1c(O)c(N=NC(=O)c2ccccc2O)c2ccccc21`, the concentration for half-maximal inhibition (IC50) is 98 µM.

Consider `Cc1ccc(C=Nc2ccccc2C(N)=O)s1`, for which the IC50 is > 100 µM (inactive).

Take `Cc1ccc(O)c(N=Cc2ccc(C)s2)c1`: the IC50 is > 100 µM (inactive).

`CCN(CC)C(=O)COC(=O)c1cc(-c2ccco2)nc2ccccc12`: the IC50 was > 100 µM (inactive).

`COc1ccccc1CCNC(=O)COC(=O)c1cc(-c2ccco2)nc2ccccc12`: the IC50 was > 100 µM (inactive).

With `Cc1ccc(C2Nc3ccc(C(=O)O)cc3C3C=CCC32)cc1` (configuration not stated), the IC50 was > 100 µM (inactive).

Turning to `Cc1c(Cl)cccc1NS(=O)(=O)c1ccc2c(c1)C1C=CCC1C(c1ccc(C(=O)O)cc1)N2` (configuration not stated), the IC50 was > 100 µM (inactive).

In the case of `CCCCn1c(NS(=O)(=O)c2ccccc2)c(S(=O)(=O)c2ccc(C)cc2)c2nc3ccccc3nc21`, the IC50 was > 100 µM (inactive).

With `COc1ccc(CNC(=O)COC(=O)c2cc(-c3ccco3)nc3ccccc23)c(OC)c1`, the IC50 was > 100 µM (inactive).

As to `COc1cc(C2c3c(oc4ccccc4c3=O)C(=O)N2c2nccs2)ccc1O` (configuration not stated), the IC50 was > 100 µM (inactive).

`COC(=O)c1cccc(-c2ccc(C(c3c(C)[nH][nH]c3=O)c3c(C)[nH][nH]c3=O)o2)c1`: the IC50 is > 100 µM (inactive).

As for `O=C(O)c1ccc2c(c1)C1C=CCC1C(c1ccc(F)cc1)N2` (configuration not stated), the IC50 was > 100 µM (inactive).

Turning to `Cc1ccsc1C=Nc1ccc(C(N)=O)cc1`, the IC50 was > 100 µM (inactive).

Turning to `C/C(=N\OCc1nc2ccccc2c(=O)n1/N=C/c1ccccc1O)c1ccccc1`, the IC50 was > 100 µM (inactive).

Take `O=C(N=Nc1c(O)[nH]c2ccc([N+](=O)[O-])cc12)c1ccccc1Cl`: the IC50 is > 100 µM (inactive).

Turning to `CCCCn1c(NC(=O)c2ccccc2Cl)c(C#N)c2nc3ccccc3nc21`, the IC50 is > 100 µM (inactive).

In the case of `COc1cc(-c2n[nH]c(=S)n2/N=C/c2cccn2C)cc(OC)c1OC`, the IC50 is > 100 µM (inactive).

`O=C(N/N=C/c1cccc(F)c1)c1cc(-c2ccco2)nc2ccccc12`: the IC50 is 25.8 µM and 23.3 µM.

Turning to `COc1ccc(NC(=O)c2cc(-c3ccco3)nc3ccccc23)cc1S(=O)(=O)N1CCOCC1`, the IC50 is 53.4 µM.

On to `COc1ccccc1C(=O)NC(=O)COC(=O)c1cc(-c2ccco2)nc2ccccc12`, for which the IC50 is > 100 µM (inactive).

Consider `O=S(=O)(Nc1ccccc1F)c1ccc2c(c1)C1C=CCC1C(c1ccc(F)cc1)N2` (configuration not stated), for which the IC50 is > 100 µM (inactive).

On to `O=C(COC(=O)c1cc(-c2ccco2)nc2ccccc12)NCc1cccc(Cl)c1`, for which the IC50 was > 100 µM (inactive).

Turning to `O=C(O)c1ccc(NS(=O)(=O)c2ccc3c(c2)C2C=CCC2C(c2ccccc2F)N3)cc1` (configuration not stated), the IC50 is > 100 µM (inactive).

For the compound `CC(=NOCc1nc2ccccc2c(=O)n1N=Cc1cc([N+](=O)[O-])ccc1O)c1ccccc1`, the IC50 was > 100 µM (inactive).

For `COc1ccc(CNC(=O)C(C)OC(=O)c2cc(-c3ccco3)nc3ccccc23)cc1` (configuration not stated), the IC50 was 83 µM.

Take `Cc1ccc(CNC(=O)COC(=O)c2cc(-c3ccco3)nc3ccccc23)cc1`: the IC50 was 58.9 µM.

Take `C=CCn1c(NS(=O)(=O)c2ccccc2)c(S(=O)(=O)c2ccc(C)cc2)c2nc3ccccc3nc21`: the IC50 is > 100 µM (inactive).

For `CCCCn1c(NC(=O)c2ccc(Br)o2)c(S(=O)(=O)c2ccccc2)c2nc3ccccc3nc21`, the IC50 is > 100 µM (inactive).

Take `O=C(O)c1ccc(C2Nc3ccc(F)cc3C3C=CCC32)cc1` (configuration not stated): the IC50 is > 100 µM (inactive).

Consider `COc1ccccc1CNC(=O)CNC(=O)c1cc(-c2ccco2)nc2ccccc12`, for which the IC50 is > 100 µM (inactive).

For `CC(=O)NC1C(=O)N(CCN2CCOCC2)c2ccc(F)cc21` (configuration not stated), the IC50 was > 100 µM (inactive).

Take `O=C(N=Nc1c(O)n(Cc2ccccc2)c2ccccc12)c1cc2ccccc2cc1O`: the IC50 is > 100 µM (inactive).

Regarding `COc1ccccc1CNC(=O)c1cc(-c2ccco2)nc2ccccc12`, the IC50 was > 100 µM (inactive).

Consider `COc1ccc(CNC(=O)COC(=O)c2cc(-c3ccco3)nc3ccccc23)cc1OC`, for which the IC50 was > 100 µM (inactive).
